Assay results from patent US9096591B2, “Tetracyclic compounds” (Medivation Technologies, Inc., priority 2007, dated 2015).

Columns and labels:
[1] = tested on: synaptosomes of cortex of rat brain; test: Glutamate-induced 45Ca2+ uptake into synaptosomes; format: biochemical, Wistar rats; conditions: for % Ca of control (control-100%), glutamate-induced 45Ca2+ uptake into synaptosomes: rat cortex synaptosomes
Procedure, shortened: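 Cortical synaptosomes (P2 fraction) from 9-10-day-old Wistar rats, ~1.5-2 mg/ml protein in HEPES-buffered saline with glucose, pH 7.4, stimulated 5 min with 200 μM glutamate at 37° C. 45Ca2+ uptake measured by filtration and scintillation counting; specific uptake with compound expressed as percentage of glutamate-induced uptake, each corrected for unstimulated uptake.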

rat brain mitochondria = test: Mitochondrial membrane potential (safranine test); format: biochemical, Wistar rats; conditions: suggested from membrane potential and calcium retention data (Table 15)
Procedure: The same experimental conditions were used for the assessment of alterations of the mitochondrial membrane potential, except that safranine was included in incubation medium at a final concentration of 10 mkM and succinate was added before the compounds of the invention. This concentration of safranine was determined before hand as the optimal compromise between signal/baseline ratio and interference of safranine itself with swelling induced by Ca/Pi (safranine tended to enhance Ca/Pi-induced swelling at concentrations above 20 mkM). Changes in the status of the mPT pore were assessed spectrophotometrically at 554 and 524 nm in a cuvette in a Beckman DU 640 spectrophotometer. A554-524 represents the characteristics of mitochondrial potential and A554-characteristics of mitochondrial swelling.

AMPA receptors = test: AMPA-receptor activity: kainic acid-induced currents in Purkinje cells (patch-clamp); format: cell-based, rat; conditions: mean±SEM, control=100%
Procedure: The analysis of effects of the testing compounds on AMPA receptors was carried out using an electrophysiological patch-clamp method in whole cell configuration (Hamill et al., 1980) of the Purkinje cell fresh isolated from the cerebellum of juvenile rats (12-15 days). The isolation was carried out using a modified method (Kaneda et al., 1988) in which cerebral 400-600 μm sections were incubated for 60 min in the temperature controlled chamber in 10 mL of buffer solution (150 mM NaCl, 5 mM KCl, 2 mM CaCl2, 2 mM MgSO4.7H2O, 10 mM HEPES, 15 mM glucose, pH 7.42). The incubation solution was exchanged with the incubation buffer with pronase (2 mg/mL) and collagenase (1 mg/mL) for 70 min. After a 20 min wash with the original buffer, all sections were placed into the Petri dish and were separated using a Pasteur pipette. All solutions were constantly aerated with 100% O2 at 34° C. The composition of extracellular saline was: 150 mM NaCl, 5 mM KCl, 2.6 mM CaCl2, 2 mM MgSO4.7H2O, 10 mM HEPES, 15 mM glucose, pH 7.36. The transmembrane current was induced as a result of the activation of AMPA receptors by a superfusion with the agonist solution (kainic acid). The currents were measured using borosilicate microelectrodes (resistance […]) filled with 100 mM KCl, 11 mM EGTA, 1 mM CaCl2, 1 mM MgCl2, 10 mM HEPES, 5 mM ATP, pH 7.2. The currents were registered using EPC-9 (HEKA, Germany) and recorded with Pulse software package which was also purchased from HEKA. The analysis of observations was carried out using Pulsefit (HEKA, Germany) and the statistical significance was analyzed using a Student's T-test criteria. Data are presented as mean±SEM in % of control values.
Compounds of the invention were tested in 3-5 neurons. Every concentration of compound was repeated three-four times in every neuron. Data are presented as mean±SEM in % of Control values (Table 13+14, FIGS. 8-12). Control value=100%.

SMILES	concentration at which glutamate-induced 45Ca2+ uptake into synaptosomes was increased [1]	concentration at which glutamate-induced 45Ca2+ uptake into synaptosomes was inhibited [1]	glutamate-induced 45Ca2+ uptake into synaptosomes of rat cortex, % Ca of control (control-100%) ([1]; C 100 μM)	impairment of mitochondrial respiratory functions accompanying inhibition of MPT (rat brain mitochondria)	kainic acid-induced currents in Purkinje cells, % of Control values (AMPA receptors; compound 3 × 10^−5 M)	kainic acid-induced currents in Purkinje cells, % of Control values (AMPA receptors; compound 10^−5 M)	kainic acid-induced currents in Purkinje cells, % of Control values (AMPA receptors; compound 10^−6 M)	kainic acid-induced currents in Purkinje cells, % of Control values (AMPA receptors; compound 10^−7 M)	kainic acid-induced currents in Purkinje cells, % of Control values (AMPA receptors; compound 10^−8 M)	also measured
Cc1ccc2c(c1)c1c(n2CCc2noc(-c3ccccc3)n2)CCN(C)C1 [Compound C4-4]	50 to 100 µM	0.5 µM	125.3 ± 11.2%	impairment of mitochondrial respiratory functions	150 ± 20%	150 ± 26%	142 ± 11%	147 ± 15%	129 ± 5%	inhibition of glutamate-induced 45Ca2+ uptake into synaptosomes ([1]; 1 μM (maximal inhibition)): 20.5%; glutamate-induced 45Ca2+ uptake into synaptosomes of rat cortex, % Ca of control (control-100%) ([1]; C 0.1 μM): 111.2 ± 9.2%; glutamate-induced 45Ca2+ uptake into synaptosomes of rat cortex, % Ca of control (control-100%) ([1]; C 0.5 μM): 81.8 ± 14%; glutamate-induced 45Ca2+ uptake into synaptosomes of rat cortex, % Ca of control (control-100%) ([1]; C 1.0 μM): 79.5 ± 11.1%; glutamate-induced 45Ca2+ uptake into synaptosomes of rat cortex, % Ca of control (control-100%) ([1]; C 5.0 μM): 97.9 ± 4.3%; glutamate-induced 45Ca2+ uptake into synaptosomes of rat cortex, % Ca of control (control-100%) ([1]; C 10 μM): 99.9 ± 11.7%; glutamate-induced 45Ca2+ uptake into synaptosomes of rat cortex, % Ca of control (control-100%) ([1]; C 25 μM): 93.6 ± 15.7%; glutamate-induced 45Ca2+ uptake into synaptosomes of rat cortex, % Ca of control (control-100%) ([1]; C 50 μM): 137.5 ± 5.4%; kainic acid-induced currents in Purkinje cells, % of Control values (AMPA receptors; compound 10^−9 M): 100%
CN1CCc2c(c3cc(Cl)ccc3n2CCc2noc(-c3ccccc3)n2)C1 [Compound C4-6]	50 to 100 µM	5 to 10 µM	152.2%	impairment of mitochondrial respiratory functions	149 ± 33%	152 ± 30%	140 ± 25%	120 ± 20%	100 ± 3%	% Ca of control (control-100%), glutamate-induced 45Ca2+ uptake into synaptosomes ([1]; compound 0.1 μM): 103.6 ± 11.4%; % Ca of control (control-100%), glutamate-induced 45Ca2+ uptake into synaptosomes ([1]; compound 0.5 μM): 96.9 ± 11.9%; % Ca of control (control-100%), glutamate-induced 45Ca2+ uptake into synaptosomes ([1]; compound 1 μM): 105.5 ± 5.2%; % Ca of control (control-100%), glutamate-induced 45Ca2+ uptake into synaptosomes ([1]; compound 5 μM): 86.5 ± 6.1%; % Ca of control (control-100%), glutamate-induced 45Ca2+ uptake into synaptosomes ([1]; compound 10 μM): 88.6 ± 2.8%; % Ca of control (control-100%), glutamate-induced 45Ca2+ uptake into synaptosomes ([1]; compound 50 μM): 122.1 ± 8.5%; % Ca of control (control-100%), glutamate-induced 45Ca2+ uptake into synaptosomes ([1]; compound 100 μM): 152.0 ± 6.7%
